According to patent US20230123334A1, “AMINO LIPID COMPOUND, PREPARATION METHOD THEREFOR, AND APPLICATION THEREOF” (SHENZHEN SHENXIN BIOTECHNOLOGY CO., LTD., priority 2020, published 2023):

test system: HEK293 cells; experiment: Preliminary screening as mRNA vectors, EGFP mRNA transfection of HEK293 cells; format: cell-based; conditions: EGFP mRNA 50 ng per well, 96-well plates; percentage of GFP fluorescent cells relative to total number of cells (Hoechst)
Summary of the method: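 Screening format: EGFP mRNA transfection (50 ng/well) into HEK293 in 10% FBS-supplemented DMEM. Percent green fluorescent cells, normalised to Hoechst nuclear count, gave the value; Lipofectamine2000 was the reference transfectant.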

Row | SMILES | Absolute mRNA transfection efficiency in HEK293 cells
1 | CCCCCCCCCCCCCNc1nc(NCCN2CCN(C)CC2)nc(SCCCCCCCC)n1 [Compound D5S8N13] | 44.2%
2 | CCCCCCCCCCCCNc1nc(NCCN2CCN(C)CC2)nc(SCCCCCCCCCCC)n1 [Compound D5S11N12] | 22.8%
3 | CCCCCCCCCSc1nc(NCCN2CCOCC2)nc(SCCCCCCCC)n1 [Compound D2S8S9] | 84.9%
4 | CCCCCCCCCCSc1nc(NCCCCCCC)nc(NCCN(C)C)n1 [Compound D1S10N7] | 0.2%
5 | CCCCCCCCCCCCCCCCCCSc1nc(NCCCCCCCC)nc(NCCCN2CCN(C)CC2)n1 [Compound D9S18N8] | 25.8%
6 | CCCCCCCCCCSc1nc(NCCCCCC)nc(NCCCN(C)C)n1 [Compound D6S10N6] | 1.5%
7 | CCCCCCCCCSc1nc(NCCCCCC)nc(NCCCN2CCOCC2)n1 [Compound D8S9N6] | 0.6%
8 | CCCCCCCCCCCCCCCCNc1nc(NCCCN(C)C)nc(SCCCCCCC)n1 [Compound D6S7N16] | 44.8%
9 | CCCCCCCCCCCCCNc1nc(NCCN2CCN(C)CC2)nc(SCCCCCCCCC)n1 [Compound D5S9N13] | 41.5%
10 | CCCCCCCCCCCCCCCCCCNc1nc(NCCN(C)C)nc(SCCCCCCCCCCCCCCC)n1 [Compound D1S15N18] | 3.8%
11 | CCCCCCCCCCCCCNc1nc(NCCN(C)C)nc(SCCCCCC)n1 [Compound D1S6N13] | 1.8%
12 | CCCCCCCCCCCCCCCCSc1nc(NCCCCCCCCC)nc(NCCCN2CCOCC2)n1 [Compound D8S16N9] | 2.1%
13 | CCCCCCCCCCCCCCSc1nc(NCCCCCCCC)nc(NCCCN2CCN(C)CC2)n1 [Compound D9S14N8] | 24.8%
14 | CCCCCCCCCCCCCCCCSc1nc(NCCCCCCCCC)nc(NCCN(CC)CC)n1 [Compound D7S16N9] | 9.0%
15 | CCCCCCSc1nc(NCCCN(C)C)nc(SCCCCCC)n1 [Compound D6S6S6] | 12.6%
16 | CCCCCCCCCCCCCCCCCCSc1nc(NCCCCCCCCCCCC)nc(NCCN(CC)CC)n1 [Compound D7S18N12] | 0.3%
17 | CCCCCCCCCSc1nc(NCCCCCCCC)nc(NCCN2CCCCC2)n1 [Compound D4S9N8] | 6.6%
18 | CCCCCCCCCCCCCCCCNc1nc(NCCN2CCCCC2)nc(SCCCCCCCCCC)n1 [Compound D4S10N16] | 14.7%
19 | CCCCCCCCCCCCCCCCCCSc1nc(NCCCCCCCCCCCCCCC)nc(NCCCN(C)C)n1 [Compound D6S18N15] | 0.0%
20 | CCCCCCNc1nc(NCCN(C)C)nc(SCCCCCC)n1 [Compound D1S6N6] | 0.8%
21 | CCCCCCCCCCCCCCCCNc1nc(NCCN2CCOCC2)nc(SCCCCCC)n1 [Compound D2S6N16] | 2.2%
22 | CCCCCCCCCCCSc1nc(NCCCCCCCCC)nc(NCCCN(C)C)n1 [Compound D6S11N9] | 45.1%
23 | CCCCCCCCCCCCCCCCNc1nc(NCC2CCN(C)CC2)nc(SCCCCCCCC)n1 [Compound D10S8N16] | 36.4%

Row | SMILES | Absolute mRNA transfection efficiency in HEK293 cells
24 | CCCCCCCCCCCCCCCCCCSc1nc(NCCCCCCCCCCCCCCCC)nc(NCCN(CC)CC)n1 [Compound D7S18N16] | 0.3%
25 | CCCCCCCCNc1nc(NCCN(C)C)nc(SCCCCCC)n1 [Compound D1S6N8] | 3.1%
26 | CCCCCCCCCCCCCCCSc1nc(NCCCN2CCOCC2)nc(SCCCCCC)n1 [Compound D8S6S15] | 2.8%
27 | CCCCCCCCCCCCCCCSc1nc(NCCCCCC)nc(NCCN(CC)CC)n1 [Compound D7S15N6] | 2.7%
28 | CCCCCCCCCCCCCCCCCCSc1nc(NCCCCCC)nc(NCCN2CCN(C)CC2)n1 [Compound D5S18N6] | 73.2%
29 | CCCCCCCCCCCCCNc1nc(NCCN(CC)CC)nc(SCCCCCC)n1 [Compound D7S6N13] | 2.6%
30 | CCCCCCCCCCCCNc1nc(NCCN(C)C)nc(SCCCCCCCCCCC)n1 [Compound D1S11N12] | 27.3%
31 | CCCCCCCCCCCCCCCCCCNc1nc(NCCN(C)C)nc(SCCCCCCCCCCCCCC)n1 [Compound D1S14N18] | 1.8%
32 | CCCCCCCCCCCCN(CCCCCCCCCCCC)c1nc(NCCN2CCOCC2)nc(SCCCCCCCCCCC)n1 [D2S11^2N12] | 0.3%
33 | CCCCCCCCCCCNc1nc(NCCCN(C)C)nc(SCCCCCCCCC)n1 [Compound D6S9N11] | 58.8%
34 | CCCCCCCCCCCCCCSc1nc(NCCCCCCCCCCCC)nc(NCCCN2CCN(C)CC2)n1 [Compound D9S14N12] | 8.0%
35 | CCCCCCCCSc1nc(NCCN(C)C)nc(SCCCCCCCC)n1 [Compound D1S8S8] | 11.7%
36 | CCCCCCCCCCCCN(CCCCCCCCCCCC)c1nc(NCCN2CCOCC2)nc(SCCCCCC)n1 [D2S6^2N12] | 0.0%
37 | CCCCCCCCCCCCCCCCCCNc1nc(NCCN2CCCC2)nc(SCCCCCCCC)n1 [Compound D3S8N18] | 28.6%
38 | CCCCCCCCCCCCCCCNc1nc(NCC2CCN(C)CC2)nc(SCCCCCCCCCC)n1 [Compound D10S10N15] | 13.2%
39 | CCCCCCNc1nc(NCCN2CCCCC2)nc(SCCCCCC)n1 [Compound D4S6N6] | 0.3%
40 | CCCCCCCCCCCCCCCCNc1nc(NCCN2CCN(C)CC2)nc(SCCCCCCCC)n1 [Compound D5S8N16] | 32.3%
41 | CCCCCCCCCCCCCCCCSc1nc(NCCCCCCCCCCCC)nc(NCCCN2CCN(C)CC2)n1 [Compound D9S16N12] | 12.4%
42 | CCCCCCCCCCCNc1nc(NCC2CCN(C)CC2)nc(SCCCCCC)n1 [Compound D10S6N11] | 4.0%
43 | CCCCCCCCCCCCCCCCCCNc1nc(NCCN(CC)CC)nc(SCCCCCCCCCCCCCCC)n1 [Compound D7S15N18] | 0.8%
44 | CCCCCCCCCCCNc1nc(NCCN2CCCCC2)nc(SCCCCCCCCCCC)n1 [Compound D4S11N11] | 2.0%
45 | CCCCCCCCCSc1nc(NCCCN(C)C)nc(SCCCCCCC)n1 [Compound D6S7S9] | 14.3%
46 | CCCCCCCCCCSc1nc(NCCCCCCC)nc(NCCN2CCN(C)CC2)n1 [Compound D5S10N7] | 3.2%

Row | SMILES | Absolute mRNA transfection efficiency in HEK293 cells
47 | CCCCCCCNc1nc(NCCN2CCOCC2)nc(SCCCCCC)n1 [Compound D2S6N7] | 2.7%
48 | CCCCCCCCCCCCSc1nc(NCCN2CCOCC2)nc(SCCCCCC)n1 [Compound D2S6S12] | 1.5%
49 | CCCCCCCCCCCCCCCCCCSc1nc(NCCCCCCCCCCCC)nc(NCCN(C)C)n1 [Compound D1S18N12] | 2.3%
50 | CCCCCCCCCCCCCNc1nc(NCCCN2CCOCC2)nc(SCCCCCCCCCC)n1 [Compound D8S10N13] | 0.2%
51 | CCCCCCCCCCCCCCCSc1nc(NCCCCCC)nc(NCCN2CCCCC2)n1 [Compound D4S15N6] | 1.3%
52 | CCCCCCCCCSc1nc(NCCN2CCCCC2)nc(SCCCCCCCC)n1 [Compound D4S8S9] | 14.3%
53 | CCCCCCCCCCCCCCCNc1nc(NCCCN2CCOCC2)nc(SCCCCCCCCCCCCCC)n1 [Compound D8S14N15] | 0.0%
54 | CCCCCCCCCCCCCNc1nc(NCCCN2CCN(C)CC2)nc(SCCCCCCCCCC)n1 [Compound D9S10N13] | 2.7%
55 | CCCCCCCCCSc1nc(NCCN(C)C)nc(SCCCCCCC)n1 [Compound D1S7S9] | 8.1%
56 | CCCCCCCCCCCSc1nc(NCCN2CCCC2)nc(SCCCCCCC)n1 [Compound D3S7S11] | 11.4%
57 | CCCCCCCCSc1nc(NCCCCCC)nc(NCCN2CCCC2)n1 [Compound D3S8N6] | 2.6%
58 | CCCCCCCCCCCCCCCCCCSc1nc(NCCCN2CCN(C)CC2)nc(SCCCCCCC)n1 [Compound D9S7S18] | 34.3%
59 | CCCCCCCCCCCCCCCCCCNc1nc(NCCN2CCN(C)CC2)nc(SCCCCCCCCCC)n1 [Compound D5S10N18] | 2.3%
60 | CCCCCCCSc1nc(NCCN2CCCC2)nc(SCCCCCCC)n1 [Compound D3S7S7] | 12.2%
61 | CCCCCCCCCCCSc1nc(NCCCN(C)C)nc(SCCCCCCC)n1 [Compound D6S7S11] | 68.6%
62 | CCCCCCCSc1nc(NCCN2CCOCC2)nc(SCCCCCCC)n1 [Compound D2S7S7] | 4.9%
63 | CCCCCCCCCCCCCCCCSc1nc(NCCCCCC)nc(NCCCN2CCN(C)CC2)n1 [Compound D9S16N6] | 85.7%
64 | CCCCCCCCCCCCCCCSc1nc(NCCCN(C)C)nc(SCCCCCCC)n1 [Compound D6S7S15] | 90.0%
65 | CCCCCCCCCCCCCCCCCCSc1nc(NCCN2CCOCC2)nc(N(CCCCCCCCCCCC)CCCCCCCCCCCC)n1 [D2S18^2N12] | 0.0%
66 | CCCCCCCCCCCCCCCNc1nc(NCCCN(C)C)nc(SCCCCCCCCCCCCCC)n1 [Compound D6S14N15] | 0.1%
67 | CCCCCCCCCCCCCCCNc1nc(NCCN(CC)CC)nc(SCCCCCCCCCC)n1 [Compound D7S10N15] | 2.0%
68 | CCCCCCCCCCCSc1nc(NCCCCCCCCC)nc(NCCN2CCCC2)n1 [Compound D3S11N9] | 24.5%
